Literature values, collected in patent US7649096B2, “Process for the preparation of a crystalline form of (S)-N [[3-(3-fluoro-4(4-morpholinyl) phenyl]-2-oxo-5-oxazolidinyl] methyl] acetamide” (Glenmark Pharmaceuticals Limited, priority 2005, dated 2010).

Assays:
[1] = tested on: enterococci; details: against enterococci
[2] = tested on: streptococci; details: majority of strains
[3] = tested on: staphylococci; details: against staphylococci

CC(=O)NC[C@H]1CN(c2ccc(N3CCOCC3)c(F)c2)C(=O)O1 [linezolid, (S)-N-[[3-[3-fluoro-4-(4-morpholinyl)phenyl]-2-oxo-5-oxazolidinyl]methyl]acetamide]
results of time-kill studies (bacteriostatic or bactericidal) [1]: bacteriostatic
results of time-kill studies (bacteriostatic or bactericidal) [2]: bactericidal for the majority of strains
results of time-kill studies (bacteriostatic or bactericidal) [3]: bacteriostatic
